target: Melanocortin receptor 4 (Homo sapiens, UniProt P32245)
Sequence (P32245 whole entry): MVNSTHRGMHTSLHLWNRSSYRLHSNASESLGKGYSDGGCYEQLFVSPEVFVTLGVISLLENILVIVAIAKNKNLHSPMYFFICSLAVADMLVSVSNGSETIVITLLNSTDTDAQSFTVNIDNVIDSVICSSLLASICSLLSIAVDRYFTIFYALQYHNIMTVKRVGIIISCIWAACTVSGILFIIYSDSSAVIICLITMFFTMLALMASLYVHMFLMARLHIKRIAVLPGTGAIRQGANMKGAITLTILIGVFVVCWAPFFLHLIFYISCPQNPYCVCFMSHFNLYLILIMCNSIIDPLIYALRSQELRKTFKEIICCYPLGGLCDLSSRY

SMILES	Ki [µM]
CN(Cc1cccnc1)Cc1ccccc1N1CCN(C(=O)[C@@H](Cc2ccc(Cl)cc2)NC(=O)[C@H]2Cc3ccccc3CN2)CC1	0.0741
C[C@@H]1CN(Cc2ccccc2N2CCN(C(=O)[C@@H](Cc3ccc(Cl)cc3)NC(=O)[C@H]3Cc4ccccc4CN3)CC2)[C@@H](C)CN1 [NBI-56297]	0.02
CN(Cc1ccccc1N1CCN(C(=O)[C@@H](Cc2ccc(Cl)cc2)NC(=O)[C@H]2Cc3ccccc3CN2)CC1)C1CCCNC1 (some centres undefined) [NBI-58702]	0.00631
CC(Nc1cc[nH]c1)c1ccccc1N1CCN(C(=O)[C@@H](Cc2ccc(Cl)cc2)NC(=O)[C@H]2Cc3ccccc3CN2)CC1 (some centres undefined) [NBI-58704]	0.0135

Source: BindingDB's records for doi:10.1124/jpet.105.083337 (Neurocrine Biosciences, 2005)
